Patent publication US12213980B2, “Application of PDE9A inhibitor in preparation of products having elevated Treg content, drugs for preventing and treating inflammatory bowel disease and health care products” (ZHEJIANG UNIVERSITY, priority 2018, dated 2025)
Read-outs that look alike come from different tables or passages of the source.

Tests used:
DSS modeled mice = assay: DSS induced model weight and colon length test; format: in vivo, C57 female mice
[1] = system: colonic mucin secretion in DSS model mice; assay: Intestinal mucin secretion test in DSS-induced model; format: in vivo, C57 female mice
Description: FIG. 3 is a control map of colonic mucin secretion in DSS model mice. It can be obtained from FIG. 3. The DSS group lost epithelial integrity, crypt structure, and goblet cell, company with immune cell infiltration, Smooth muscle cell hypertrophy and reduced secretory glycoprotein when compared with the control group.

[2] = system: Treg cells in mesenteric lymph node, spleen and colon; assay: Activation test of Treg in DSS induction model (flow cytometry); format: in vivo, C57 female mice
Protocol: The colon was digested with collagenase, and the mesenteric lymph nodes and spleen tissues were ground and sieved through 100 mesh to prepare single cell suspensions. The cell density was adjusted to 10^5 cell/100 μl, and the Treg amount was determined for each sample.
Related studies have shown that T cells, especially Treg cells, play a role in the protection of DSS inflammatory bowel disease model. In order to study the role of Treg in the DSS colitis model, three mesenteric lymph nodes, spleen and colon were evaluated based on trial 4, respectively.

[3] = system: SOD activity and MDA amount in colon tissue
Protocol: (§1) C57 female mice were selected and weighed about 20 g. All mice were randomly divided into control group (control group), model group (DSS group), sulfasalazine group (AS group) and low dose group (PF3 group). The middle dose group (PF10 group) and the high dose group (PF30 group), a total of 6 groups, 10 mice in each group.
(§2) The control group was treated with deionized water and the remaining 5 groups were fed with 3% DSS solution.
(§3) During the period, the sulfasalazine group was intragastrically administered at a dose of 0.5 g/kg, and the PF-04447943 low-dose group, the middle-dose group, and the high-dose daily gavage were administered at a dose of 3 mg/kg, 10 mg/kg, and 30 mg/kg, respectively. The body weight, water bottle weight and the record were weighed daily. On the 8th day, the mice were sacrificed by deep anesthesia, and the colon, mesenteric lymph nodes, spleen and anus were taken. The length of the colon was measured and the colon was divided into three sections. The anal part specimens were fixed in formalin and the remaining specimens were stored frozen at −80° C. Isolating the mononuclear cells of colon, mesenteric lymph node and spleen, then staining separately, the distribution of DC cells and Treg cells in colon, mesenteric lymph nodes and spleen were determined by flow cytometry. IL-6, IL-12, TNF-α, IL-17 etc were measured by ELISA. SOD activity and MDA amount in colon tissue were measured, and the effect of PDE9A inhibitor PF-04447943 on mouse model was analyzed.
After the intestinal tissue homogenization, SOD activity and MDA amount in colon tissue were determined by SOD and MDA assay kits.

[4] = system: TNF-α, IL-17, IL-6, IL-12/IL-23 in colon tissue
Protocol: as §1, §2, §3
After intestinal tissue homogenization, TNF-α, IL-17, IL-6, IL-12/IL-23 in colon tissue were determined by ELISA kit.

[5] = system: DC cells in colon and mesenteric lymph nodes; assay: Activation test of intestinal mucosa DC in DSS induced model (flow cytometry); format: in vivo, C57 female mice
Protocol: as §1, §2, §3
The colon was digested with collagenase, and the mesenteric lymph nodes were ground and sieved through 100 mesh to prepare single cell suspensions. The cell density was adjusted to […], and the DC cell amount was determined for each sample.
FIG. 5 is a control plot of total DC and mature DC in colon, mesenteric lymphatic cleansing in DSS model mice.

DSS mice = assay: DSS-induced mouse model, overall comparison with sulfasalazine; format: in vivo, C57 female mice; conditions: high-dose PF-04447943 group (30 mg/kg) vs sulfasalazine at conventional dose (0.5 g/kg)
[6] = cited from earlier work
[7] = high dose group (30 mg/kg) vs DSS group and control group
[8] = high, medium and low dose groups vs DSS group
[9] = high, medium and low dose groups vs control and DSS groups
[10] = high dose group (30 mg/kg) vs DSS group

What does the source list for `C[C@@H]1CN(Cc2ncccn2)C[C@H]1c1nc2c(cnn2C2CCOCC2)c(=O)[nH]1` [PF-04447943]?
colon length (DSS modeled mice; PF30 group (30 mg/kg) vs DSS group): significant difference; weight loss and colon shortening in the DSS-induced model (DSS modeled mice; conclusion, dose not stated): inhibited the weight loss and colon shortening; destruction of intestinal mucosal mucin secretion induced by DSS ([1]; conclusion, dose not stated): significantly inhibit; loss of epithelial integrity and crypt structure, loss of goblet cells, immune cell infiltration, smooth muscle cell hypertrophy, secretory glycoprotein reduction ([1]; low-dose, medium-dose and high-dose groups (3, 10, 30 mg/kg)): gradually reversed; protective effect on colonic epithelial cells ([1]; with increasing dose of PF-04447943 (3, 10, 30 mg/kg)): gradually better; DSS-inhibited Treg activation ([2]; conclusion, dose not stated): significantly enhanced; differentiation of CD4+Foxp3+ Treg cells ([2]; conclusion, dose not stated): significantly induced an increase; CD4+FOXP3+ Treg cells in colon [2, 7]: significantly higher than that of the DSS group and the control group; CD4+FOXP3+ Treg cells in mesenteric lymph nodes [2, 7]: significantly higher than that of the DSS group and the control group; CD4+FOXP3+ Treg cells in spleen [2, 7]: significantly higher than that of the DSS group and the control group; CD4+CD25+ Treg cells in colon [2, 8]: significantly higher in the colon than in the DSS group; CD4+CD25+ Treg cells in mesenteric lymph nodes [2, 9]: significantly lower; CD4+CD25+ Treg cells in spleen [2, 9]: significantly lower; DSS-induced intestinal oxidative stress damage ([3]; conclusion, dose not stated): significantly inhibit; MDA amount in colon tissue ([3]; drug group vs DSS group): lower than that of the DSS group; MDA amount in colon tissue [3, 10]: statistically different from the DSS group; SOD activity in colon tissue [3, 10]: improved compared with the DSS group; DSS-induced inflammatory factors secreted by the intestinal mucosa ([4]; conclusion, dose not stated): significantly inhibits; IL-6 level in colon tissue [4, 10]: significantly lower than those in the DSS group; IL-12/IL-23 level in colon tissue [4, 10]: statistically significant compared with the DSS group; IL-17 level in colon tissue [4, 10]: statistically significant compared with the DSS group; TNF-α level in colon tissue [4, 10]: statistically significant compared with the DSS group; IL-6 level in colon tissue ([4]; middle dose group (10 mg/kg) vs DSS group): significantly lower than those in the DSS group; migration of DC cells from the colon to the mesenteric lymph nodes and DC maturation ([5]; conclusion, dose not stated): can inhibit; activated DC cells in mesenteric lymph node (MLN) [5, 8]: significantly lower than the DSS group; activated DC (mDC) cells in colon ([5]; low, medium and high dose groups (3, 10, 30 mg/kg) vs DSS group): significantly lower than the DSS group; total DC cells in mesenteric lymph node (MLN) ([5]; low, medium and high groups (3, 10, 30 mg/kg) vs DSS group): significantly lower than the DSS group; efficacy in IL-6 secretion, SOD activity, MDA amount, activation of DC and regulation of Treg (DSS mice): superior to the conventional drug sulfasalazine at conventional dose

With `O=C(O)c1cc(/N=N/c2ccc(S(=O)(=O)Nc3ccccn3)cc2)ccc1O` [sulfasalazine] as the compound, how does the “activated DC cells in colon” value ([5]; sulfasalazine group 0.5 g/kg, compared with PF-04447943 dose groups) read?
The value was “lower than the high dose group”.

For “vedolizumab: α4β7 integrin antibody approved by the FDA in 2014 for moderate to severe UC and CD”, which “patients with adverse reactions” value ([6]; CD patients) is on record?
Its value is 37%.

What about the “patients with adverse reactions” value ([6]; UC patients) of the same compound?
Its value is 29%.

What about the clinical improvement ([6]; patients treated with vedolizumab) of the same compound?
Its clinical improvement is “significant Clinical improvement”.
